In brackets after ≈: the same amount, converted by molar mass. Read-outs that look alike come from different tables or passages of the source.
How the values were obtained:
Tenacibaculum maritimum = assay: MIC determination in broth, 96 well plates (OD600 and plating); format: cell-based; settings: Tenacibaculum maritimum (tenacibaculosis), (MA/MB)/15° C.
Streptococcus iniae = assay: as above; format: cell-based; settings: Streptococcus iniae (streptococcosis), (TSAY/TSBY)/28° C.
Saprolegnia parasitica = assay: Minimum lethal concentration (MLC) determination; format: cell-based; settings: Saprolegnia parasitica (saprolegniasis); GY/20° C.; in triplicate
Aeromonas salmonicida = assay: MIC determination in broth, 96 well plates (OD600 and plating); format: cell-based; settings: Aeromonas salmonicida (furunculosis), (TSA/TSB)/20° C.
Vibrio parahaemolyticus = assay: as above
Streptococcus agalactiae = assay: as above; format: cell-based; settings: Streptococcus agalactiae (streptococcosis), (TSAY/TSBY)/28° C.

Compound `CSC1=C(C)C(=O)C(=O)NC1=O` [RejuAgro A] has an MIC (Tenacibaculum maritimum) of 12.5 µg/mL (≈ 67.5 µM), an MIC (Tenacibaculum maritimum; read-out: MIC) of 12.5 µg/mL (≈ 67.5 µM) and an MIC (Streptococcus iniae) of 3.13 µg/mL (≈ 16.9 µM). For the same compound, the MIC (Streptococcus iniae; read-out: MIC) was 3.13 µg/mL (≈ 16.9 µM), the “MLC (minimum lethal concentration)” value (Saprolegnia parasitica) was 100 µg/mL (≈ 540 µM) and the MIC (Aeromonas salmonicida) was 1.56 µg/mL (≈ 8.42 µM). The MIC (Aeromonas salmonicida; read-out: MIC) was 1.56 µg/mL (≈ 8.42 µM), the MIC (Vibrio parahaemolyticus; Vibrio parahaemolyticus) was 0.39 µg/mL (≈ 2.11 µM) and the MIC (Vibrio parahaemolyticus; Vibrio parahaemolyticus (vibriosis, acute hepatopancreatic necrosis disease), (TSA2/TSB2)/37° C.) was 0.39 µg/mL (≈ 2.11 µM). For the same compound, the MIC (Streptococcus agalactiae) was 1.56 µg/mL (≈ 8.42 µM) and the MIC (Streptococcus agalactiae; read-out: MIC) was 1.56 µg/mL (≈ 8.42 µM).
